Experimental findings from patent US11590139B2, “Substituted aminopurine compounds, compositions thereof, and methods of treatment therewith” (Signal Pharmaceuticals, LLC, priority 2014, dated 2023) are described below.

In the first assay the test system is Lox-IMVI melanoma cell line. Kind of assay: Lox-IMVI anti-proliferative assay (growth inhibition, Cell Titer-Glo). It is filed as cell-based, human. To be noted: Homo sapiens; IC50 activity level in the cell-based Lox-IMVI anti-proliferative assay; read-out: Activity. In short, it runs like this:
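Cells grown in RPMI + 10% FBS were exposed to compound at 0.5 nM to 10 μM (10-point, 3-fold dilution, duplicate, 0.2% DMSO final) for 72 h at 37 °C, 5% CO2. Viability was read by ATP luminescence at t0 and 72 h. IC50 came from a four-parameter logistic fit normalized to DMSO control.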
For orientation: Cellular ATP, detected with luciferase, serves as a proxy for viable cell number.
`NC(=O)[C@H]1CC[C@@H](n2c(Nc3c(F)cccc3Cl)nc3cnc(N[C@H]4CC[C@H](O)C4)nc32)CC1` [Example 325, (1R,4s)-4-(8-(2-chloro-6-fluorophenylamino)-2-((1S,3S)-3-hydroxycyclopentylamino)-9H-purin-9-yl)cyclohexanecarboxamide]: the IC50 is over 1000 nM.
`C[C@@H]1CC[C@@H](Nc2ncc3nc(Nc4c(F)cc(Cl)cc4Cl)n([C@H]4CC[C@@H](C(N)=O)CC4)c3n2)C[C@H]1O` [Example 346, (1S,4s)-4-(8-(2,4-dichloro-6-fluorophenylamino)-2-((1R,3R,4R)-3-hydroxy-4-methylcyclohexylamino)-9H-purin-9-yl)cyclohexanecarboxamide]: the IC50 lay within 250 to 500 nM.
Regarding `NC(=O)[C@H]1CC[C@@H](n2c(Nc3c(F)ccc(Cl)c3Cl)nc3cnc(NC4CCOCC4)nc32)CC1` [Example 104, (1s,4s)-4-(8-(2,3-dichloro-6-fluorophenylamino)-2-(tetrahydro-2H-pyran-4-ylamino)-9H-purin-9-yl)cyclohexanecarboxamide], the IC50 is 250 to 500 nM.
The same measure, in the same setting: to `NC(=O)[C@H]1CC[C@@H](n2c(Nc3c(Cl)cc(F)cc3Cl)nc3cnc(N[C@@H]4CCC[C@H]4O)nc32)CC1` [Example 256, (1S,4s)-4-(8-(2,6-dichloro-4-fluorophenylamino)-2-((1R,2R)-2-hydroxycyclopentylamino)-9H-purin-9-yl)cyclohexanecarboxamide] belongs over 1000 nM; to `NC(=O)[C@H]1CC[C@@H](n2c(Nc3ccc(Cl)c(F)c3F)nc3cnc(N[C@@H]4CCC[C@H]4O)nc32)CC1` [Example 258, (1S,4s)-4-(8-(4-chloro-2,3-difluorophenylamino)-2-((1R,2R)-2-hydroxycyclopentylamino)-9H-purin-9-yl)cyclohexanecarboxamide], over 1000 nM; to `CC(C)(C)OC(=O)N1CCC[C@@H](Nc2ncc3nc(Nc4c(Cl)cc(Cl)cc4Cl)n([C@H]4CC[C@@H](C(N)=O)CC4)c3n2)C1` [Example 163, (R)-tert-butyl 3-(9-((1s,4S)-4-carbamoylcyclohexyl)-8-(2,4,6-trichlorophenylamino)-9H-purin-2-ylamino)piperidine-1-carboxylate], over 1000 nM.
Still for that read-out and setting: with `NC(=O)[C@H]1CC[C@@H](n2c(Nc3c(F)ccc(Cl)c3F)nc3cnc(N[C@H]4C[C@H](O)C4)nc32)CC1` [Example 286, (1s,4s)-4-(8-(3-chloro-2,6-difluorophenylamino)-2-((1r,3r)-3-hydroxycyclobutylamino)-9H-purin-9-yl)cyclohexanecarboxamide] the figure was over 1000 nM; with `NC(=O)[C@H]1CC[C@@H](n2c(Nc3cc(F)c(F)cc3F)nc3cnc(NC4CCOCC4)nc32)CC1` [Example 58, (1s,4s)-4-(2-(tetrahydro-2H-pyran-4-ylamino)-8-(2,4,5-trifluorophenylamino)-9H-purin-9-yl)cyclohexanecarboxamide], 500 to 1000 nM; with `N#Cc1cc(Cl)c(Nc2nc3cnc(NC4CCC4)nc3n2[C@H]2CC[C@@H](C(N)=O)CC2)c(Cl)c1` [Example 392, (1s,4s)-4-(2-(cyclobutylamino)-8-(2,6-dichloro-4-cyanophenylamino)-9H-purin-9-yl)cyclohexanecarboxamide], under 250 nM.
Turning to `CC[C@@H](CO)Nc1ncc2nc(Nc3c(F)cccc3Cl)n([C@H]3CC[C@@H](C(N)=O)CC3)c2n1` [Example 144, (1R,4s)-4-(8-(2-chloro-6-fluorophenylamino)-2-((S)-1-hydroxybutan-2-ylamino)-9H-purin-9-yl)cyclohexanecarboxamide], the IC50 was over 1000 nM.
Take `NC(=O)[C@H]1CC[C@@H](n2c(Nc3ccc(F)c(Cl)c3Cl)nc3cnc(NC4CCOCC4)nc32)CC1` [Example 81, (1s,4s)-4-(8-(2,3-dichloro-4-fluorophenylamino)-2-(tetrahydro-2H-pyran-4-ylamino)-9H-purin-9-yl)cyclohexanecarboxamide]: the IC50 was over 1000 nM.

The assay is the same for the next values; noted with them: Homo sapiens; Lox-IMVI anti-proliferative assay, IC50 activity level; read-out: Activity.
Regarding `C[C@]1(C(N)=O)CC[C@H](n2c(Nc3c(F)cc(C#N)cc3Cl)nc3cnc(NC4CCCC4)nc32)CC1` [Example 486, (1r,4r)-4-(8-(2-chloro-4-cyano-6-fluorophenylamino)-2-(cyclopentylamino)-9H-purin-9-yl)-1-methylcyclohexanecarboxamide], the IC50 lay in the range of 500 to 1000 nM.
Take `NC(=O)[C@H]1CC[C@@H](n2c(Nc3c(Cl)cc(Cl)cc3Cl)nc3cnc(N[C@@H]4CCCC[C@@H]4O)nc32)CC1` [Example 483, (1S,4s)-4-(2-((1R,2S)-2-hydroxycyclohexylamino)-8-(2,4,6-trichlorophenylamino)-9H-purin-9-yl)cyclohexanecarboxamide]: the IC50 was over 1000 nM.
Take `COC(=O)N1CCC[C@@H](Nc2ncc3nc(Nc4c(F)cc(F)cc4Cl)n([C@H]4CC[C@@H](C(N)=O)CC4)c3n2)C1` [Example 407, (R)-methyl 3-(9-((1s,4S)-4-carbamoylcyclohexyl)-8-(2-chloro-4,6-difluorophenylamino)-9H-purin-2-ylamino)piperidine-1-carboxylate]: the IC50 was over 1000 nM.
On to `CC[C@@H](CO)Nc1ncc2nc(Nc3c(F)cc(C#N)cc3F)n([C@H]3CC[C@@H](C(N)=O)CC3)c2n1` [Example 402, (1R,4s)-4-(8-(4-cyano-2,6-difluorophenylamino)-2-((S)-1-hydroxybutan-2-ylamino)-9H-purin-9-yl)cyclohexanecarboxamide], for which the IC50 was over 1000 nM.
In the case of `N#Cc1cc(F)c(Nc2nc3cnc(NC4CC5(COC5)C4)nc3n2[C@H]2CC[C@@H](C(N)=O)CC2)c(F)c1` [Example 573, (1s,4s)-4-(2-(2-oxaspiro[3.3]heptan-6-ylamino)-8-(4-cyano-2,6-difluorophenylamino)-9H-purin-9-yl)cyclohexanecarboxamide], the IC50 is over 1000 nM.
For the compound `C[C@]1(C(N)=O)CC[C@@H](n2c(Nc3c(F)cc(F)cc3Cl)nc3cnc(NC4CCCC4)nc32)CC1` [Example 558, (1s,4s)-4-(8-(2-chloro-4,6-difluorophenylamino)-2-(cyclopentylamino)-9H-purin-9-yl)-1-methylcyclohexanecarboxamide], the IC50 was under 250 nM.
Take `C[C@@H](CO)Nc1ncc2nc(Nc3c(Cl)cc(F)cc3Cl)n([C@H]3CC[C@@](C)(C(N)=O)CC3)c2n1` [Example 551, (1R,4s)-4-(8-(2,6-dichloro-4-fluorophenylamino)-2-((S)-1-hydroxypropan-2-ylamino)-9H-purin-9-yl)-1-methylcyclohexanecarboxamide]: the IC50 was under 250 nM.

The same assay, now with this note: Homo sapiens; Lox-IMVI melanoma cell line, anti-proliferative assay; read-out: Activity (IC50 activity level).
Regarding `NC(=O)[C@H]1CC[C@@H](n2c(Nc3c(F)cc(Cl)cc3F)nc3cnc(N[C@@H]4CCCN(c5ccccc5)C4)nc32)CC1` [Example 747, (1S,4s)-4-(8-(4-chloro-2,6-difluorophenylamino)-2-((R)-1-phenylpiperidin-3-ylamino)-9H-purin-9-yl)cyclohexanecarboxamide], the IC50 is over 1000 nM.
As for `NC(=O)[C@H]1CC[C@@H](n2c(Nc3c(F)cc(F)cc3Cl)nc3cnc(N[C@@H]4CCCN(Cc5ccccc5)C4)nc32)CC1` [Example 751, (1S,4s)-4-(2-((R)-1-benzylpiperidin-3-ylamino)-8-(2-chloro-4,6-difluorophenylamino)-9H-purin-9-yl)cyclohexanecarboxamide], the IC50 is over 1000 nM.
On to `C[C@]1(C(N)=O)CC[C@@H](n2c(Nc3c(Cl)cc(F)cc3Cl)nc3cnc(N[C@H]4CCC[C@H](O)C4)nc32)CC1` [Example 613, (1R,4s)-4-(8-(2,6-dichloro-4-fluorophenylamino)-2-((1S,3S)-3-hydroxycyclohexylamino)-9H-purin-9-yl)-1-methylcyclohexanecarboxamide], for which the IC50 is under 250 nM.
In the case of `CCN1CCC[C@@H](Nc2ncc3nc(Nc4c(Cl)cc(Cl)cc4Cl)n([C@H]4CC[C@@H](C(N)=O)CC4)c3n2)C1` [Example 732, (1S,4s)-4-(2-((R)-1-ethylpiperidin-3-ylamino)-8-(2,4,6-trichlorophenylamino)-9H-purin-9-yl)cyclohexanecarboxamide], the IC50 was over 1000 nM.
Consider `NC(=O)[C@H]1CC[C@@H](n2c(Nc3c(F)cc(F)cc3Cl)nc3cnc(NC[C@@H]4CCCC[C@@H]4O)nc32)CC1` [Example 653, (1R,4s)-4-(8-(2-chloro-4,6-difluorophenylamino)-2-(((1S,2S)-2-hydroxycyclohexyl)methylamino)-9H-purin-9-yl)cyclohexanecarboxamide], for which the IC50 is over 1000 nM.
For `NC(=O)[C@H]1CC[C@@H](n2c(Nc3c(F)cc(F)cc3F)nc3cnc(NC[C@@H]4CCCC[C@@H]4O)nc32)CC1` [Example 652, (1R,4s)-4-(2-(((1S,2S)-2-hydroxycyclohexyl)methylamino)-8-(2,4,6-trifluorophenylamino)-9H-purin-9-yl)cyclohexanecarboxamide], the IC50 was over 1000 nM.
As for `C[C@]1(C(N)=O)CC[C@@H](n2c(Nc3c(Cl)cc(Cl)cc3Cl)nc3cnc(N[C@@H]4CCC[C@@H](O)C4)nc32)CC1` [Example 619, (1S,4s)-4-(2-((1R,3R)-3-hydroxycyclohexylamino)-8-(2,4,6-trichlorophenylamino)-9H-purin-9-yl)-1-methylcyclohexanecarboxamide], the IC50 was in the range of 500 to 1000 nM.
On to `N#Cc1cc(Cl)c(Nc2nc3cnc(N[C@@H]4CCCN(c5ccccc5)C4)nc3n2[C@H]2CC[C@@H](C(N)=O)CC2)c(Cl)c1` [Example 744, (1S,4s)-4-(8-(2,6-dichloro-4-cyanophenylamino)-2-((R)-1-phenylpiperidin-3-ylamino)-9H-purin-9-yl)cyclohexanecarboxamide], for which the IC50 is over 1000 nM.
As to `C[C@]1(C(N)=O)CC[C@@H](n2c(Nc3c(Cl)cc(C#N)cc3Cl)nc3cnc(N[C@@H]4CCC[C@@H](O)C4)nc32)CC1` [Example 624, (1S,4s)-4-(8-(2,6-dichloro-4-cyanophenylamino)-2-((1R,3R)-3-hydroxycyclohexylamino)-9H-purin-9-yl)-1-methylcyclohexanecarboxamide], the IC50 fell in the range of 250 to 500 nM.
